The values that follow come from patent publication US11677091B2, “Use of quaternary ammonium salt-type anthraquinone-based active material and salt cavern organic aqueous redox flow battery” (CHINA SALT JINTAN CO., LTD., priority 2020, dated 2023).

A short description of this data set: Electrochemical characterization of the active material (rotating disk electrode, diffusion coefficient, charge transfer rate constant). In kind it is physicochemical. The settings on record: on a graphite felt electrode. An excerpt: FIG. 2 to FIG. 9 show the characterization of electrochemical performances of the prepared active material.

In the case of `C[N+](C)(C)CCCOc1cccc2c1C(=O)c1c(OCCC[N+](C)(C)C)cccc1C2=O` [Embodiment 1], the “charge transfer rate constant” value stood at 0.00302 cm/s and the diffusion coefficient was 3.94×10^−6 cm^2/s.
